Legend:
Assay in all cases: protein kinase blot: kinases renatured on the blot, labeling with [γ-32P]ATP
Type in all cases: biochemical
[1] = test system: other putative kinase bands of demembranated sperm; conditions: demembranated ram sperm
Description: (§1) Ejaculated sperm were -collected and washed and demembranated as described in San Agustin et al., Cell Motl. Cytoskel., 24:264-73, 1993. Samples of demembranated sperm were dissolved in SDS-PAGE sample buffer (10% glycerol, 3% SDS, 0.03% bromphenol blue, 50 mM DTT, 62.5 mM Tris-HCl, pH 6.8), and then electrophoresed in a 1.5-mm thick gradient gel (5-15%, 12×14 cm). Protein kinases were renatured on the blot and incubated in the presence of [γ−^32P]ATP using a protocol adapted from Ferrell and Martin, Methods Enzymol., 200:430-35, 1991 and described in San Austin et al., Methods Cell Biol., 47:135-40, 1995. Under these condition, bound kinases phosphorylated themselves or the blocking reagent. In some experiments, 1% poly(Glu,Tyr) 4:1, a tyrosine kinase substrate, was used as blocking solution in place of 5% BSA. […] Two prominent bands at ˜Mr 40,000 and 39,000 migrated slightly faster than porcine C (41 kDa). To determine if either of these was Cs, the incubation with [γ−^32P]ATP was carried out in the presence of PKI(5-24), a potent inhibitor of C, including ram Cs, activity. […] Labeling of the other bands was not affected by PKI(5-24).

[2] = target: porcine C (Sus scrofa, UniProt P36887)
Description: as §1

[3] = target: T1, ~Mr 40,000 band from sperm (Cs) (Ovis aries, UniProt Q9MZD9); conditions: demembranated ram sperm
T1 construct: Samples of demembranated sperm were dissolved in SDS-PAGE sample buffer; from tissue; host or cells: ejaculated, demembranated ram sperm
Description: as §1

labeling of the other bands with [γ-32P]ATP in the presence of inhibitor [1]: not affected
labeling of porcine C with [γ-32P]ATP in the presence of inhibitor [2]: completely and specifically blocked
labeling of the ~Mr 40,000 band from sperm with [γ-32P]ATP in the presence of inhibitor [3]: completely and specifically blocked
Substance: PKI(5-24)
